Where a name gives a salt, the structure may show the parent alone.
Biological target: histidine-tagged recombinant human TrkA, cytoplasmic domain (Homo sapiens (Human), UniProt P04629)
Experiment: TrkA ELISA Assay
Assay type: biochemical
Conditions: 2.5 nM TrkA, 500 μM ATP, 25 minutes; read-out: TrkA Elisa Enzyme IC50
Protocol: An enzyme-linked immunosorbant assay (ELISA) was used to assess TrkA kinase activity in the presence of inhibitors. Immulon 4HBX 384-well microtiter plates (Thermo part #8755) were coated with a 0.025 mg/mL solution of poly (Glu, Ala, Tyr; 6:3:1; Sigma P3899). Various concentrations of test compound, 2.5 nM TrkA (Invitrogen Corp., histidine-tagged recombinant human TrkA, cytoplasmic domain), and 500 μM ATP were incubated for 25 minutes at ambient temperature in the coated plates while shaking. The assay buffer consisted of 25 mM MOPS pH 7.5, 0.005% (v/v) Triton X-100 and 5 mM MgCl2. The reaction mixture was removed from the plate by washing with PBS containing 0.1% (v/v) Tween 20. The phosphorylated reaction product was detected using 0.2 μg/mL of a phosphotyrosine specific monoclonal antibody (clone PY20) conjugated to horseradish peroxidase in conjunction with the TMB Peroxidase Substrate System (KPL). After the addition of 1M phosphoric acid, the chromogenic substrate color intensity was quantitated via absorbance at 450 nm. IC50 values were calculated using either a 4 or 5-parameter logistic curve fit.

histidine-tagged recombinant human TrkA, cytoplasmic domain, sequence (P04629 440-796): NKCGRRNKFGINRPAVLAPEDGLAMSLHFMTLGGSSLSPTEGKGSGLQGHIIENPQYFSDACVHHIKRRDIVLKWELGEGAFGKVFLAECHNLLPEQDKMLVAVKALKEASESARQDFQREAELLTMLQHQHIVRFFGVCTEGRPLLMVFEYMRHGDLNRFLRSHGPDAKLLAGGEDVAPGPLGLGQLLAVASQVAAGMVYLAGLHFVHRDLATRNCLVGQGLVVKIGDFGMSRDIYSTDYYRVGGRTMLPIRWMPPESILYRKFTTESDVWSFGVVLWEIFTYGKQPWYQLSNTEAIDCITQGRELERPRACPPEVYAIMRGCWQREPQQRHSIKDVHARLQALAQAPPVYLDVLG

SMILES	IC50 [nM]
COC1CN(C(=O)Nc2cnn3ccc(N4CCC[C@@H]4c4cc(F)ccc4Cl)nc23)C1 [Example 21, (R)—N-(5-(2-(2-chloro-5-fluorophenyl)pyrrolidin-1-yl)pyrazolo[1,5-a]pyrimidin-3-yl)-3-methoxyazetidine-1-carboxamide]	27.9
Cc1cnccc1C(=O)Nc1cnn2ccc(N3CCC[C@@H]3c3cccc(F)c3)nc12 [Example 80, (R)—N-(5-(2-(3-fluorophenyl)pyrrolidin-1-yl)pyrazolo[1,5-a]pyrimidin-3-yl)-3-methylisonicotinamide]	320
O=C(Nc1cnn2ccc(N3CCC[C@@H]3c3cc(F)ccc3C(F)F)nc12)N1CC(O)C1 [Example 12, (R)—N-(5-(2-(2-(difluoromethyl)-5-fluorophenyl)pyrrolidin-1-yl)pyrazolo[1,5-a]pyrimidin-3-yl)-3-hydroxyazetidine-1-carboxamide]	26.5
CC(C)(C(=O)Nc1cnn2ccc(N3CCC[C@@H]3c3cc(F)ccc3F)nc12)n1cncn1 [Example 56, (R)—N-(5-(2-(2,5-difluorophenyl)pyrrolidin-1-yl)pyrazolo[1,5-a]pyrimidin-3-yl)-2-methyl-2-(1H-1,2,4-triazol-1-yl)propanamide]	14.4
C[C@H]1CN(C(=O)Nc2cnn3ccc(N4CCC[C@@H]4c4cc(F)ccc4F)nc23)CCN1 [Example 31, (S)—N-(5-((R)-2-(2,5-difluorophenyl)pyrrolidin-1-yl)pyrazolo[1,5-a]pyrimidin-3-yl)-3-methylpiperazine-1-carboxamide hydrochloride]	88.3
CN1CCN(C(=O)Nc2cnn3ccc(N4CCC[C@@H]4c4cc(F)ccc4F)nc23)CC1 [Example 28, (R)—N-(5-(2-(2,5-difluorophenyl)pyrrolidin-1-yl)pyrazolo[1,5-a]pyrimidin-3-yl)-4-methylpiperazine-1-carboxamide]	57.4
Cn1ccnc1C(=O)Nc1cnn2ccc(N3CCC[C@@H]3c3cccc(F)c3)nc12 [Example 83, (R)—N-(5-(2-(3-fluorophenyl)pyrrolidin-1-yl)pyrazolo[1,5-a]pyrimidin-3-yl)-1-methyl-1H-imidazole-2-carboxamide]	35.4
COC1CN(C(=O)Nc2cnn3ccc(N4CCC[C@@H]4c4cc(F)ccc4F)nc23)C1 [Example 16, (R)—N-(5-(2-(2,5-difluorophenyl)pyrrolidin-1-yl)pyrazolo[1,5-a]pyrimidin-3-yl)-3-methoxyazetidine-1-carboxamide]	27.5
O=C(Nc1cnn2ccc(N3CCC[C@@H]3c3cc(F)ccc3C(F)F)nc12)N1CCC(O)CC1 [Example 38, (R)—N-(5-(2-(2-(difluoromethyl)-5-fluorophenyl)pyrrolidin-1-yl)pyrazolo[1,5-a]pyrimidin-3-yl)-4-hydroxypiperidine-1-carboxamide]	85.5
O=C(Nc1cnn2ccc(N3CCC[C@@H]3c3cc(F)ccc3Cl)nc12)N1CCOCC1 [Example 23, (R)—N-(5-(2-(2-chloro-5-fluorophenyl)pyrrolidin-1-yl)pyrazolo[1,5-a]pyrimidin-3-yl)morpholine-4-carboxamide]	41.7
O=C(Nc1cnn2ccc(N3CCC[C@@H]3c3cncc(F)c3)nc12)N1CC[C@H](O)C1 [Example 88, (S)—N-(5-((R)-2-(5-fluoropyridin-3-yl)pyrrolidin-1-yl)pyrazolo[1,5-a]pyrimidin-3-yl)-3-hydroxypyrrolidine-1-carboxamide]	156
O=C(Nc1cnn2ccc(N3CCC[C@@H]3c3cc(F)ccc3C(F)(F)F)nc12)N1CCC[C@H](O)C1 [Example 87, (S)—N-(5-((R)-2-(5-fluoro-2-(trifluoromethyl)phenyl)pyrrolidin-1-yl)pyrazolo[1,5-a]pyrimidin-3-yl)-3-hydroxypiperidine-1-carboxamide]	14.6
CNC(C)(C)C(=O)Nc1cnn2ccc(N3CCC[C@@H]3c3cc(F)ccc3F)nc12 [Example 66, (R)—N-(5-(2-(2,5-difluorophenyl)pyrrolidin-1-yl)pyrazolo[1,5-a]pyrimidin-3-yl)-2-methyl-2-(methylamino)propanamide]	52.5
C[C@H]1CN(C(=O)Nc2cnn3ccc(N4CCC[C@@H]4c4cc(F)ccc4Cl)nc23)CCN1C(=O)OC(C)(C)C [Example 24, (S)-tert-butyl 4-(5-((R)-2-(2-chloro-5-fluorophenyl)pyrrolidin-1-yl)pyrazolo[1,5-a]pyrimidin-3-ylcarbamoyl)-2-methylpiperazine-1-carboxylate]	55
CC(C)(F)C(=O)Nc1cnn2ccc(N3CCC[C@@H]3c3cc(F)ccc3F)nc12 [Example 54, (R)—N-(5-(2-(2,5-difluorophenyl)pyrrolidin-1-yl)pyrazolo[1,5-a]pyrimidin-3-yl)-2-fluoro-2-methylpropanamide]	14.2
CC(C)(C)OC(=O)N1CC(C(=O)Nc2cnn3ccc(N4CCC[C@@H]4c4cc(F)ccc4Cl)nc23)C1 [Example 46, (R)-tert-butyl 3-(5-(2-(2-chloro-5-fluorophenyl)pyrrolidin-1-yl)pyrazolo[1,5-a]pyrimidin-3-ylcarbamoyl)azetidine-1-carboxylate]	37.3
C[C@]1(C(=O)Nc2cnn3ccc(N4CCC[C@@H]4c4cc(F)ccc4F)nc23)CCCN1 [Example 53, (R)—N-(5-((R)-2-(2,5-difluorophenyl)pyrrolidin-1-yl)pyrazolo[1,5-a]pyrimidin-3-yl)-2-methylpyrrolidine-2-carboxamide]	31
CC(C)N1CCN(C(=O)Nc2cnn3ccc(N4CCC[C@@H]4c4cc(F)ccc4F)nc23)CC1 [Example 26, (R)—N-(5-(2-(2,5-difluorophenyl)pyrrolidin-1-yl)pyrazolo[1,5-a]pyrimidin-3-yl)-4-isopropylpiperazine-1-carboxamide]	45

Other lines, results leading:

IC50 [nM]	SMILES
7.5	CC(C)(CO)C(=O)Nc1cnn2ccc(N3CCC[C@@H]3c3cc(F)ccc3F)nc12 [Example 64, (R)—N-(5-(2-(2,5-difluorophenyl)pyrrolidin-1-yl)pyrazolo[1,5-a]pyrimidin-3-yl)-3-hydroxy-2,2-dimethylpropanamide]
6.2	Cc1cccnc1C(=O)Nc1cnn2ccc(N3CCC[C@@H]3c3cccc(F)c3)nc12 [Example 69, (R)—N-(5-(2-(3-fluorophenyl)pyrrolidin-1-yl)pyrazolo[1,5-a]pyrimidin-3-yl)-3-methylpicolinamide]
11.7	O=C(Nc1cnn2ccc(N3CCC[C@@H]3c3cc(F)ccc3Cl)nc12)N1CCC[C@@H](O)C1 [Example 43, (R)—N-(5-((R)-2-(2-chloro-5-fluorophenyl)pyrrolidin-1-yl)pyrazolo[1,5-a]pyrimidin-3-yl)-3-hydroxypiperidine-1-carboxamide]
6.3	CC(C)(C)C(=O)Nc1cnn2ccc(N3CCC[C@@H]3c3cc(F)ccc3F)nc12 [Example 45, (R)—N-(5-(2-(2,5-difluorophenyl)pyrrolidin-1-yl)pyrazolo[1,5-a]pyrimidin-3-yl)pivalamide]
3	O=C(Nc1cnn2ccc(N3CCC[C@@H]3c3cc(F)ccc3F)nc12)c1ncccn1 [Example 67, (R)—N-(5-(2-(2,5-difluorophenyl)pyrrolidin-1-yl)pyrazolo[1,5-a]pyrimidin-3-yl)pyrimidine-2-carboxamide]
4.65	NC(=O)C(=O)Nc1cnn2ccc(N3CCC[C@@H]3c3cc(F)ccc3F)nc12 [Example 99, (R)—N^1-(5-(2-(2,5-difluorophenyl)pyrrolidin-1-yl)pyrazolo[1,5-a]pyrimidin-3-yl)oxalamide]
3.1	CC(C)Nc1nc(C(=O)Nc2cnn3ccc(N4CCC[C@@H]4c4cc(F)ccc4F)nc23)cs1 [Example 55, (R)—N-(5-(2-(2,5-difluorophenyl)pyrrolidin-1-yl)pyrazolo[1,5-a]pyrimidin-3-yl)-2-(isopropylamino)thiazole-4-carboxamide]
13.3	O=C(Nc1cnn2ccc(N3CCC[C@@H]3c3cc(F)ccc3F)nc12)N1C[C@@H](O)[C@H](O)C1 [Example 15, (3R,4R)—N-(5-((R)-2-(2,5-difluorophenyl)pyrrolidin-1-yl)pyrazolo[1,5-a]pyrimidin-3-yl)-3,4-dihydroxypyrrolidine-1-carboxamide]
14	O=C(Nc1cnn2ccc(N3CCC[C@@H]3c3cc(F)ccc3C(F)(F)F)nc12)N1CCC[C@@H](O)C1 [Example 86, (R)—N-(5-((R)-2-(5-fluoro-2-(trifluoromethyl)phenyl)pyrrolidin-1-yl)pyrazolo[1,5-a]pyrimidin-3-yl)-3-hydroxypiperidine-1-carboxamide]
4.7	COC(=O)C1(C(=O)Nc2cnn3ccc(N4CCC[C@@H]4c4cc(F)ccc4F)nc23)CC1 [Example 33, (R)-methyl 1-(5-(2-(2,5-difluorophenyl)pyrrolidin-1-yl)pyrazolo[1,5-a]pyrimidin-3-ylcarbamoyl)cyclopropanecarboxylate]
5.7	COc1ncccc1C(=O)Nc1cnn2ccc(N3CCC[C@@H]3c3cccc(F)c3)nc12 [Example 79, (R)—N-(5-(2-(3-fluorophenyl)pyrrolidin-1-yl)pyrazolo[1,5-a]pyrimidin-3-yl)-2-methoxynicotinamide]
3.5	O=C(Nc1cnn2ccc(N3CCC[C@@H]3c3cc(F)ccc3F)nc12)c1cccc(Cl)n1 [Example 71, (R)-6-chloro-N-(5-(2-(2,5-difluorophenyl)pyrrolidin-1-yl)pyrazolo[1,5-a]pyrimidin-3-yl)picolinamide]
